The values below come from ChEMBL document CHEMBL1130875, “Conformationally constrained analogues of diacylglycerol (DAG). 14. Dissection of the roles of the sn-1 and sn-2 carbonyls in DAG mimetics by isopharmacophore replacement” (Bioorg Med Chem Lett, 1998).

For this experiment, the target named is Protein kinase C alpha type (Homo sapiens, UniProt P17252). In words: Displacement of [20-3H]phorbol-12,13-dibutyrate from a recombinant PK-C alpha.
Usually Ki stands for the equilibrium dissociation constant of an inhibitor or competing ligand from its target. As for `CCCCCCCCCCCCC/C=C1\CC(CO)(COS(C)(=O)=O)OC1=O` (centres undefined), the Ki turned out to be 823 nM.

`CCCCCCCCCCCCCCS(=O)(=O)OCC1(CO)CCC(=O)O1` (centres undefined): the inhibitory constant (Ki) was 90.7 nM.

Take `CCCCCCCCCCCCCC(=O)OCC1(CO)CCS(=O)(=O)O1` (centres undefined): the inhibition constant Ki stood at 1040 nM.

On to `CCCCCCCCCCCCC/C=C1\CC(CO)(COC(C)=O)OS1(=O)=O` (centres undefined), for which the Ki worked out at 320 nM.
